# Reference: paper PMC3983352 (Journal of Medicinal Chemistry, 2014)
# Columns and labels:
# [1] = target: HDAC1 C151A (Homo sapiens, UniProt Q13547, C151A); assay: Acetate inhibition assay; assay type: biochemical
# [2] = tested on: recombinant HDAC8 wild type; conditions: acetate inhibition; cited from earlier work
# [3] = target: wild-type HDAC1 (Homo sapiens, UniProt Q13547); assay: Acetate inhibition assay; assay type: biochemical; conditions: at least three independent trials, standard error
# [4] = target: HDAC1 Y24A (Homo sapiens, UniProt Q13547, Y24A); assay: Acetate inhibition assay; assay type: biochemical
# [5] = target: HDAC1 Y23A (Homo sapiens, UniProt Q13547, Y23A); assay: Acetate inhibition assay; assay type: biochemical
# [6] = target: HDAC1 R36A (Homo sapiens, UniProt Q13547, R36A); assay: Acetate inhibition assay; assay type: biochemical
# [7] = target: HDAC1 R34A (Homo sapiens, UniProt Q13547, R34A); assay: Acetate inhibition assay; assay type: biochemical
# [8] = tested on: HDAC8 R37A; conditions: HDAC8 R37A vs HDAC8 wild type; cited from earlier work
# [9] = target: HDAC1 F205Y (Homo sapiens, UniProt Q13547, F205Y); assay: Acetate inhibition assay; assay type: biochemical
# Chain of HDAC1 F205Y (Q13547 whole entry F205Y): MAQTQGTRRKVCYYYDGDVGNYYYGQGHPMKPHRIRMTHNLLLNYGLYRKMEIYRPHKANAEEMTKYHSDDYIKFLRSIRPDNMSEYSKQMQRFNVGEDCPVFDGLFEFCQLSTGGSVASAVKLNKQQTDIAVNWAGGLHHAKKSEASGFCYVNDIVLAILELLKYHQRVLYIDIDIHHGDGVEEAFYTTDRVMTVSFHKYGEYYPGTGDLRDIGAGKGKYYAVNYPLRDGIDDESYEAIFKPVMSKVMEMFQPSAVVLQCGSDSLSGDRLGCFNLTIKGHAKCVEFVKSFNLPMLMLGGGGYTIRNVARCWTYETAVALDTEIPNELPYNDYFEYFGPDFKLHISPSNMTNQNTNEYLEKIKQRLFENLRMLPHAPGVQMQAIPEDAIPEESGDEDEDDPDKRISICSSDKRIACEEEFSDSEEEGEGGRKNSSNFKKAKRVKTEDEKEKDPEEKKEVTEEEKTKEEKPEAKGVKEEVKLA
# Chain of HDAC1 C151A (Q13547 whole entry C151A): as the sequence (Q13547 whole entry F205Y) above, with C151A, Y205F counted along it
# Chain of HDAC1 Y23A (Q13547 whole entry Y23A): as the sequence (Q13547 whole entry F205Y) above, with Y23A, Y205F counted along it
# Chain of HDAC1 Y24A (Q13547 whole entry Y24A): as the sequence (Q13547 whole entry F205Y) above, with Y24A, Y205F counted along it
# Chain of HDAC1 R36A (Q13547 whole entry R36A): as the sequence (Q13547 whole entry F205Y) above, with R36A, Y205F counted along it
# Chain of HDAC1 R34A (Q13547 whole entry R34A): as the sequence (Q13547 whole entry F205Y) above, with R34A, Y205F counted along it
# Chain of wild-type HDAC1 (Q13547 whole entry): as the sequence (Q13547 whole entry F205Y) above, with Y205F counted along it
smiles,measurement,setting,value
"CC(=O)[O-].[Na+] [acetate, sodium acetate]",fold reduction in acetate inhibition compared to the wild type,[1]; HDAC1 C151A vs wild type,roughly 2 fold
same,IC50,"[1]; acetate inhibition, HDAC1 C151A",13 ± 1.1 mM
same,IC50,[2],2.5 mM
same,IC50,[3],7.2 ± 0.54 mM
same,fold reduction in acetate inhibition compared to the wild type,[4]; HDAC1 Y24A vs wild type,roughly 3 fold
same,IC50,"[4]; acetate inhibition, HDAC1 Y24A",19 ± 1.1 mM
same,fold reduction in acetate inhibition compared to the wild type,[5]; HDAC1 Y23A vs wild type,roughly 3 fold
same,IC50,"[5]; acetate inhibition, HDAC1 Y23A",21 ± 1.5 mM
same,fold reduction in acetate inhibition compared to the wild type,[6]; HDAC1 R36A vs wild type,roughly 2 fold
same,IC50,"[6]; acetate inhibition, HDAC1 R36A",16 ± 1.3 mM
same,fold reduction in acetate inhibition compared to the wild type,[7]; HDAC1 R34A vs wild type,roughly 3 fold
same,IC50,"[7]; acetate inhibition, HDAC1 R34A",21 ± 1.6 mM
same,fold reduction of acetate inhibition compared to wild type,[8],160 fold
same,IC50,[9],8 ± 1.5 mM
